For assay [1], the target named is mP2X7 (Mus musculus (Mouse), UniProt Q9Z1M0). As to the kind of experiment: mP2X7 channel calcium-influx assay (Fluo-8 NW, FLIPR TETRA, Bz-ATP stimulation). Type of assay: cell-based. On the procedure: (§1) Extracellular binding of Bz-ATP to P2X7 receptor opens the channel and allows Ca^2+ influx into the cells. This Ca^2+ entry was measured in HEK-293 cells stably transfected with P2X7 receptor using Screen Quest™ Fluo-8 No Wash Calcium Assay Kit (AAt Bioquest®, cat. 36316). Once inside the cell, the lipophilic blocking groups of Fluo-8 are cleaved by non-specific cell esterases, resulting in a negatively-charged fluorescent dye that stays inside cells. Its fluorescence increases upon binding to calcium. When HEK-293/P2X7 cells are stimulated with Bz-ATP, Ca^2+ enters the cells and the fluorescence of Fluo-8 NW increases.
Chain of mP2X7 (Q9Z1M0 whole entry): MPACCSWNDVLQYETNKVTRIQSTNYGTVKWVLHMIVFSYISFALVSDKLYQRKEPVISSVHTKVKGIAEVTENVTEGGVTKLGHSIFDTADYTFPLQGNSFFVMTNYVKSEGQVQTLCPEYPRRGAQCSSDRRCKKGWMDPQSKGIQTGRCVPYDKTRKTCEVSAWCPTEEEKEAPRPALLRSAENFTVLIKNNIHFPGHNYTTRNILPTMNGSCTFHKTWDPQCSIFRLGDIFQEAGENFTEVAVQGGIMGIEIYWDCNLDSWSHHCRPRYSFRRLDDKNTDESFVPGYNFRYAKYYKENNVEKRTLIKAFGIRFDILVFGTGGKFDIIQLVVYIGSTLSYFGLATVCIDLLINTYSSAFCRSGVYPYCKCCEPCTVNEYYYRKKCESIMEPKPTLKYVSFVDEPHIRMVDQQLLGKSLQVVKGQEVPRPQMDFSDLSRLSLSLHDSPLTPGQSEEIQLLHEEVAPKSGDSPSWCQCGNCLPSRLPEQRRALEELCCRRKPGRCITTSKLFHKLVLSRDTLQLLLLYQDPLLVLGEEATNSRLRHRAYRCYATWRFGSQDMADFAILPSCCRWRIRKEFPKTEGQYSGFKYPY
(§2) HEK-293 cells stably transfected with P2X7 receptor were seeded overnight in growth medium at 10,000 to 20,000 cells/well in 384-well plate. 24 hours later, the medium was removed, and the cells were pre-loaded at RT for 1 hour with 20 μL/w of Fluo-8 NW. Then 10 μL/w of test compounds and reference antagonist A438079 at 3X-concentration were injected with the […] and the kinetic response over a period of five minutes was monitored.

In assay [2] the target is P2X7 receptor (Homo sapiens (Human), UniProt Q99572). As to the kind of experiment: Human P2X7 channel calcium-influx assay (Fluo-8 NW, FLIPR TETRA, Bz-ATP stimulation). The settings on record: HEK-293 cells stably transfected with P2X7 receptor, Low Divalent Cation Assay Buffer, read-out: hP2X7 IC50. Type of assay: cell-based. On the procedure:
as §1, §2

Each structure is given as a SMILES string.

The results in this text go back to US20240034737A1, “Heterocyclic Derivatives as P2X7 Receptor Antagonists” (BREYE THERAPEUTICS APS, priority 2020, published 2024).

Chain of P2X7 receptor (Q99572 whole entry): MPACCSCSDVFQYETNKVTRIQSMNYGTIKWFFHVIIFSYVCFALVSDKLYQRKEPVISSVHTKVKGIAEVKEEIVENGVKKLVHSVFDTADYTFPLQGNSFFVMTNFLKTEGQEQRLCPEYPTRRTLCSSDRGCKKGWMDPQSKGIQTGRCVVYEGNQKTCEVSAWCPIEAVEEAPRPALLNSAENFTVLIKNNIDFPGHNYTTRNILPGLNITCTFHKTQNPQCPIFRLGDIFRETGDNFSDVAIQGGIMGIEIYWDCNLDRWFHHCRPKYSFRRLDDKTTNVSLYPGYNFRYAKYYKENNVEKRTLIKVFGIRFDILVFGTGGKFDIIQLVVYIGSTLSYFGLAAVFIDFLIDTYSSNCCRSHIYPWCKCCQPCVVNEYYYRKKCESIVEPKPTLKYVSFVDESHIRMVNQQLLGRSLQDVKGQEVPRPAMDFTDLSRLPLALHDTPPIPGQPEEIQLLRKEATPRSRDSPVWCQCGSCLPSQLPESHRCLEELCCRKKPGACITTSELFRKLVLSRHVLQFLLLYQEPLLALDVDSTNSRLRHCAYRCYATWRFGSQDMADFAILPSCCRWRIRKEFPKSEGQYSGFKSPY

As to `Cc1cccc(OCC2CCN(C(CNC(=O)c3c(F)cccc3Cl)c3scnc3C(F)F)CC2)n1` (stereo not drawn) [Example 88, 2-Chloro-N-{2-[4-(difluoromethyl)-1,3-thiazol-5-yl]-2-(4-{[(6-methylpyridin-2-yl)oxy]methyl}piperidin-1-yl)ethyl}-6-fluorobenzamide], the concentration for half-maximal inhibition (IC50) in assay [1] is 25.2 nM; in assay [2] it was 27.8 nM.

In the case of `N#Cc1cnccc1OCC1CCN(C(CNC(=O)c2c(F)cccc2Cl)c2scnc2C(F)F)CC1` (stereo not drawn) [Example 122, 2-Chloro-N-[2-(4-{[(3-cyanopyridin-4-yl)oxy]methyl}piperidin-1-yl)-2-[4-(difluoromethyl)-1,3-thiazol-5-yl]ethyl]-6-fluorobenzamide], the figures for the IC50 in assay [1] and in assay [2] were 44.2 nM and 39.6 nM, respectively.

As to `Cc1cccnc1OCC1CCN(C(CNC(=O)c2c(F)cccc2Cl)c2scnc2C(F)F)CC1` (stereo not drawn) [Example 99, 2-Chloro-N-{2-[4-(difluoromethyl)-1,3-thiazol-5-yl]-2-(4-{[(3-methylpyridin-2-yl)oxy]methyl}piperidin-1-yl)ethyl}-6-fluorobenzamide], the IC50 in assay [1] turned out to be 15.2 nM; in assay [2] it was 22.8 nM.

`Cc1cc(OC2CCN(C(CNC(=O)c3c(F)cccc3Cl)c3scnc3C(F)F)CC2)nc(F)n1` (stereo not drawn) [Example 54, 2-Chloro-N-{2-[4-(difluoromethyl)-1,3-thiazol-5-yl]-2-{4-[(2-fluoro-6-methylpyrimidin-4-yl)oxy]piperidin-1-yl}ethyl}-6-fluorobenzamide]: the IC50 in assay [1] amounted to 52.9 nM; in assay [2], 22.8 nM.

Regarding `O=C(NCC(c1scnc1C(F)F)N1CCC(Oc2cccnn2)CC1)c1c(F)cccc1Cl` (stereo not drawn) [Example 71, 2-Chloro-N-{2-[4-(difluoromethyl)-1,3-thiazol-5-yl]-2-[4-(pyridazin-3-yloxy)piperidin-1-yl]ethyl}-6-fluorobenzamide], the IC50 in assay [1] amounted to 222 nM; in assay [2] it was 58.9 nM.

`O=C(NCC(c1scnc1C(F)F)N1CCC(COc2cncc(F)n2)CC1)c1c(F)cccc1Cl` (stereo not drawn) [Example 105, 2-Chloro-N-{2-[4-(difluoromethyl)-1,3-thiazol-5-yl]-2-(4-{[(6-fluoropyrazin-2-yl)oxy]methyl}piperidin-1-yl)ethyl}-6-fluorobenzamide]: the half-inhibitory concentration (IC50) in assay [1] is 30.4 nM; in assay [2], 48.4 nM.

Take `O=C(NCC(c1scnc1C(F)F)N1CCC(Oc2cccc(F)n2)CC1)c1c(F)cccc1Cl` (stereo not drawn) [Example 72, 2-Chloro-N-{2-[4-(difluoromethyl)-1,3-thiazol-5-yl]-2-{4-[(6-fluoropyridin-2-yl)oxy]piperidin-1-yl}ethyl}-6-fluorobenzamide]: the values for the IC50 in assay [1] and in assay [2] were 29.4 nM and 11.9 nM, respectively.

Turning to `O=C(NCC(c1scnc1C(F)F)N1CCC(Oc2ncccn2)CC1)c1c(F)cccc1Cl` (stereo not drawn) [Example 4, 2-chloro-N-{2-[4-(difluoromethyl)-1,3-thiazol-5-yl]-2-[4-(pyrimidin-2-yloxy)piperidin-1-yl]ethyl}-6-fluorobenzamide], the half-maximal inhibitory concentration (IC50) in assay [1] came to 408 nM; in assay [2] it was 58.2 nM.

Consider `O=C(NCC(c1scnc1C(F)F)N1CCC(Oc2ncccc2C(F)(F)F)CC1)c1c(F)cccc1Cl` (stereo not drawn) [Example 59, 2-Chloro-N-{2-[4-(difluoromethyl)-1,3-thiazol-5-yl]-2-(4-{[3-(trifluoromethyl)pyridin-2-yl]oxy}piperidin-1-yl)ethyl}-6-fluorobenzamide], for which the concentration for half-maximal inhibition (IC50) stood at 56.1 nM in assay [1] and 29.4 nM in assay [2].

On to `O=C(NCC(c1scnc1C(F)F)N1CCC(COc2ccn3nccc3n2)CC1)c1c(F)cccc1Cl` (stereo not drawn) [Example 117, 2-Chloro-N-{2-[4-(difluoromethyl)-1,3-thiazol-5-yl]-2-[4-({pyrazolo[1,5-a]pyrimidin-5-yloxy}methyl)piperidin-1-yl]ethyl}-6-fluorobenzamide], for which the IC50 in assay [1] amounted to 35.8 nM; in assay [2], 48.2 nM.

Turning to `O=C(NCC(c1scnc1C(F)F)N1CCC(COc2cc(C(F)(F)F)ncn2)CC1)c1c(F)cccc1Cl` (stereo not drawn) [Example 115, 2-Chloro-N-{2-[4-(difluoromethyl)-1,3-thiazol-5-yl]-2-[4-({[6-(trifluoromethyl)pyrimidin-4-yl]oxy}methyl)piperidin-1-yl]ethyl}-6-fluorobenzamide], the IC50 came out at 44.3 nM in assay [1] and 74.5 nM in assay [2].

Take `Cc1ccc(OC2CCN(C(CNC(=O)c3c(F)cccc3Cl)c3scnc3C(F)F)CC2)nn1` (stereo not drawn) [Example 29, 2-Chloro-N-{2-[4-(difluoromethyl)-1,3-thiazol-5-yl]-2-{4-[(6-methylpyridazin-3-yl)oxy]piperidin-1-yl}ethyl}-6-fluorobenzamide]: the IC50 in assay [1] came to 87.6 nM; in assay [2], 31.7 nM.

Take `O=C(NCC(c1scnc1C(F)F)N1CCC(COc2ccc(F)cn2)CC1)c1c(F)cccc1Cl` (stereo not drawn) [Example 102, 2-Chloro-N-{2-[4-(difluoromethyl)-1,3-thiazol-5-yl]-2-(4-{[(5-fluoropyridin-2-yl)oxy]methyl}piperidin-1-yl)ethyl}-6-fluorobenzamide]: the IC50 in assay [1] is 33.8 nM; in assay [2], 32 nM.

For `O=C(NCC(c1scnc1C(F)F)N1CCC(Oc2cncc(F)n2)CC1)c1c(F)cccc1Cl` (stereo not drawn) [Example 33, 2-Chloro-N-{2-[4-(difluoromethyl)-1,3-thiazol-5-yl]-2-{4-[(6-fluoropyrazin-2-yl)oxy]piperidin-1-yl}ethyl}-6-fluorobenzamide], the values for the IC50 in assay [1] and in assay [2] were 52.5 nM and 39.9 nM, respectively.

For the molecule `COc1ccnc(OC2CCN(C(CNC(=O)c3c(F)cccc3Cl)c3scnc3C(F)F)CC2)n1` (stereo not drawn) [Example 64, 2-Chloro-N-{2-[4-(difluoromethyl)-1,3-thiazol-5-yl]-2-{4-[(4-methoxypyrimidin-2-yl)oxy]piperidin-1-yl}ethyl}-6-fluorobenzamide], the results for the IC50 in assay [1] and in assay [2] were 209 nM and 65.8 nM, respectively.

On to `Cc1ccnc(OCC2CCN(C(CNC(=O)c3c(F)cccc3Cl)c3scnc3C(F)F)CC2)c1` (stereo not drawn) [Example 89, 2-Chloro-N-{2-[4-(difluoromethyl)-1,3-thiazol-5-yl]-2-(4-{[(4-methylpyridin-2-yl)oxy]methyl}piperidin-1-yl)ethyl}-6-fluorobenzamide], for which the IC50 in assay [1] turned out to be 24.1 nM; in assay [2], 29.2 nM.

Turning to `O=C(NCC(c1scnc1C(F)F)N1CCC(Oc2ccc(F)cn2)CC1)c1c(F)cccc1Cl` (stereo not drawn) [Example 30, 2-Chloro-N-{2-[4-(difluoromethyl)-1,3-thiazol-5-yl]-2-{4-[(5-fluoropyridin-2-yl)oxy]piperidin-1-yl}ethyl}-6-fluorobenzamide], the IC50 came out at 24 nM in assay [1] and 17.3 nM in assay [2].

Take `O=C(NCC(c1scnc1C(F)F)N1CCC(Oc2cc(C(F)(F)F)ncn2)CC1)c1c(F)cccc1Cl` (stereo not drawn) [Example 43, 2-Chloro-N-{2-[4-(difluoromethyl)-1,3-thiazol-5-yl]-2-(4-{[6-(trifluoromethyl)pyrimidin-4-yl]oxy}piperidin-1-yl)ethyl}-6-fluorobenzamide]: the values for the IC50 in assay [1] and in assay [2] were 63.9 nM and 69.2 nM, respectively.

Consider `Cc1cnc(F)nc1OC1CCN(C(CNC(=O)c2c(F)cccc2Cl)c2scnc2C(F)F)CC1` (stereo not drawn) [Example 55, 2-Chloro-N-{2-[4-(difluoromethyl)-1,3-thiazol-5-yl]-2-{4-[(2-fluoro-5-methylpyrimidin-4-yl)oxy]piperidin-1-yl}ethyl}-6-fluorobenzamide], for which the IC50 in assay [1] turned out to be 34 nM; in assay [2], 22.9 nM.

As to `O=C(NCC(c1scnc1C(F)F)N1CCC(Oc2nc3ccccc3s2)CC1)c1c(F)cccc1Cl` (stereo not drawn) [Example 20, N-{2-[4-(1,3-Benzothiazol-2-yloxy)piperidin-1-yl]-2-[4-(difluoromethyl)-1,3-thiazol-5-yl]ethyl}-2-chloro-6-fluorobenzamide], the IC50 was 14 nM in assay [1] and 17.5 nM in assay [2].

With `O=C(NCC(c1scnc1C(F)F)N1CCC(Oc2nccn3nccc23)CC1)c1c(F)cccc1Cl` (stereo not drawn) [Example 44, 2-Chloro-N-{2-[4-(difluoromethyl)-1,3-thiazol-5-yl]-2-(4-{pyrazolo[1,5-a]pyrazin-4-yloxy}piperidin-1-yl)ethyl}-6-fluorobenzamide], the IC50 in assay [1] was found to be 30.6 nM; in assay [2], 27.9 nM.

As to `O=C(NCC(c1scnc1C(F)F)N1CCC(Oc2ncccc2Cl)CC1)c1c(F)cccc1Cl` (stereo not drawn) [Example 47, 2-Chloro-N-(2-{4-[(3-chloropyridin-2-yl)oxy]piperidin-1-yl}-2-[4-(difluoromethyl)-1,3-thiazol-5-yl]ethyl)-6-fluorobenzamide], the half-inhibitory concentration (IC50) was 43.9 nM in assay [1] and 31 nM in assay [2].

Turning to `O=C(NCC(c1scnc1C(F)F)N1CCC(COc2cc(F)ccn2)CC1)c1c(F)cccc1Cl` (stereo not drawn) [Example 126, 2-chloro-N-{2-[4-(difluoromethyl)-1,3-thiazol-5-yl]-2-(4-{[(4-fluoropyridin-2-yl)oxy]methyl}piperidin-1-yl)ethyl}-6-fluorobenzamide], the IC50 in assay [1] was 34.7 nM; in assay [2], 36.5 nM.

With `O=C(NCC(c1scnc1C(F)F)N1CCC(Oc2cncc(-n3cccn3)n2)CC1)c1c(F)cccc1Cl` (stereo not drawn) [Example 58, 2-Chloro-N-{2-[4-(difluoromethyl)-1,3-thiazol-5-yl]-2-(4-{[6-(1H-pyrazol-1-yl)pyrazin-2-yl]oxy}piperidin-1-yl)ethyl}-6-fluorobenzamide], the concentration for half-maximal inhibition (IC50) turned out to be 11.5 nM in assay [1] and 27.4 nM in assay [2].
